According to publication PMC5372522, “Bioavailability Comparison of Nine Bioselenocompounds In Vitro and In Vivo” (International Journal of Molecular Sciences, 2017):

Tests used:
[1] = parameters: method as in PMID 6076213; details: selenyl group versus sulfhydryl group; cited from earlier work
Caco-2 cells [2] = experiment: Cell viability assay (CellTiter 96 Aqueous One) in Caco-2 cells; details: 6 h exposure; for dose at or above which cell viability was significantly reduced: p < 0.05
Protocol: (§1) Caco-2 cells were used in the in vitro permeability assay in the next experiment, and the cytotoxicity of bioselenocompounds was assayed 6 h after exposure to evaluate the harmful effects of bioselenocompounds on the cells. The cytotoxicity and/or proliferative effects of bioselenocompounds on HepG2 cells were analyzed 24 and 48 h after exposure.
(§2) A human colon carcinoma cell line (Caco-2) and a human hepatocyte carcinoma cell line (HepG2) were obtained from Riken BioResource Center (Wako, Japan). The composition of the passaging medium for Caco-2 or HepG2 was Eagle’s Minimum Essential Medium (MEM) with 20% FBS, 1% non-essential amino acid (NEAA), and 1% penicillin-streptomycin, or Dulbecco’s Modified Eagle’s Medium (DMEM) with 10% FBS and 1% penicillin-streptomycin, respectively. Caco-2 cells were seeded on a 96-well plate at 5500 cells/well and incubation was carried out for 2 days. […] Cell viability was determined by the CellTiter 96® Aqueous One Solution Cell Proliferation Assay (Promega, Madison, WI, USA) based on mitochondrial respiratory activity. HepG2 cells were seeded on a 96-well plate at 5000 cells/well and incubation was carried out for 1 day. Then, the cells were exposed to a Se compound, and cell viability was determined by using the same protocol as that mentioned above.

HepG2 cells = experiment: Cell viability / proliferation assay (CellTiter 96 Aqueous One) in HepG2 cells; details: for effect on cell proliferation: 24 h exposure; for dose at which cytotoxicity / reduced cell viability was seen / effect on cell viability / proliferation: 48 h exposure; for dose from which toxicity was dose-dependent: 24 and 48 h exposure
Protocol: as §1, §2

Caco-2 cells [3] = experiment: In vitro permeability assay using Caco-2 cell monolayers; assay type: in vitro ADME, human; details: for permeability in the presence of Met: with 10 mM Met versus without
Protocol: The bioselenocompounds were evaluated and compared in accordance with the standard protocol of the in vitro permeability assay using Caco-2 cells.
Figure 3 Permeability from the apical side to the basolateral side of Caco-2 cells. The permeability of the nine bioselenocompounds was compared (a). A 500 μL aliquot of fresh medium containing 1 μg Se/mL of each bioselenocompound was poured into the insert and the medium in the lower chamber was collected after 90 min. Values and bars are means ± SD for 3 wells. Statistical analysis was performed by the Tukey test. […] The effects of Met on the permeability of SeMet and MeSeCys were evaluated (b). Hatched and solid bars represent with and without 10 mM Met, respectively. Points and bars are means ± SD for 3 wells. Statistical analysis include the one-way analysis of variance followed by the Student’s t-test. The level of significance was set at p < 0.05, and is indicated by an asterisk (*).
Confluent Caco-2 cells at the cell density of around 20,000 cells/cm^2 were harvested by trypsinization and suspended in basal medium (Corning, Corning, NY, USA) containing MITO+ Serum Extender (Corning) at the cell density of 4 × 10^5 cells/mL. A 0.5 mL aliquot of the cell suspension was seeded on the inserts of a Falcon 24-Multiwell Insert System (Corning). The inserts were transferred onto a 24-well plate that contained 1 mL of basal medium, and incubation was carried out for 24 h. Then, the basal medium was carefully removed from the wells and the inserts, and 1.0 and 0.5 mL aliquots of the differentiation medium (Entero-STIM) containing MITO+ Serum Extender (Corning) were added to the wells and the inserts, respectively. The plate was incubated for another 3 days to induce the formation of a monolayer of differentiated Caco-2 cells. The medium was carefully removed from the inserts and the inserts were washed with transport buffer (HBSS + 10 mM HEPES, pH 7.4). Then, a 350 μL aliquot of each Se compound solution in transport buffer or this solution with 10 mM L-methionine (Wako) was added to the insert chamber. These inserts were transferred onto a plate and a 50 μL aliquot was withdrawn from the chamber of each insert for measurement of the initial concentration of the donor chamber. One milliliter of transfer buffer was added to the plate wells and the plate was incubated on an orbital shaker at 37 °C for 90 min in a CO2 incubator. The transport buffer in the lower chamber was collected to determine Se concentration 90 min after the incubation. Se concentrations were measured by an inductively coupled plasma mass spectrometer (ICP-MS, Agilent 7700cx, Agilent, Hachiouji, Japan). The Se compound solution in the chamber of each insert was removed and a 300 μL aliquot of 300 μM Lucifer Yellow (LY) solution was added to the upper chamber. Then, the concentration of LY that permeated the lower chamber was determined by a fluorescence photometer (excitation wavelength: 485 nm, emission wavelength: 538 nm). Monolayers producing 0.3%–2.0% LY flux were recognized as intact monolayers of differentiated Caco-2 cells. Monolayers with flux exceeding 2.0% were excluded from the experiment.

Caco-2 and HepG2 cells = experiment: Proliferative effect under standard culture conditions for Caco-2 and HepG2 cells; assay type: cell-based, human; details: data not shown
Protocol: as §2

[4] = test system: selenoprotein P (SELENOP); experiment: Bioavailability in vivo: recovery of serum SELENOP in Se-deficient rats by LC-ICP-MS; details: oral 10 μg Se/rat once a day for 2 days, serum 24 h after administration
Protocol: (§3) Two major serum selenoproteins were detected by LC-ICP-MS (Figure 4a). The peak detected at the retention time of 11.0 min was assigned to extracellular glutathione peroxidase (GPX3), and the peak at the retention time of 13.5 min was assigned to selenoprotein P (SELENOP) according to our previous literature. The abbreviations of the selenoproteins (GPX3 and SELENOP) were adopted in accordance with the latest nomenclature. We used the recovery amounts of serum selenoproteins in Se-deficient rats as the index of Se bioavailability when a selenocompound was administered to an Se-deficient rat. […] Sera sampled from rats administered each bioselenocompound were analyzed for the recovery of Se in the form of selenoproteins by LC-ICP-MS, and their bioavailabilities, namely, the assimilation of Se into GPX3 and SELENOP, are summarized in Figure 4c,d, respectively. Coinciding with a previous study, SELENOP was more efficiently recovered than GPX3 in the Se-deficient rats 24 h after the repletion of the bioselenocompounds except for TMSe^+. There were no significant differences in the recovery of GPX3 among all the bioselenocompounds except for TMSe^+ (Figure 4c). As SELENOP was more efficiently recovered, the recovery of SELENOP by all the bioselenocompounds except TMSe^+ was more obvious than that of GPX3 (Figure 4d). […] Therefore, there were no significant differences in the bioavailability in vivo among all the bioselenocompounds except TMSe^+.
(§4) Specific pathogen free (SPF) male Wistar rats (4 weeks of age) were purchased from Japan SLC (Shizuoka, Japan) and were housed in a humidity-controlled room maintained at 25 ± 2 °C with a 12 h light-dark cycle. The rats were fed a commercial diet (MF, Oriental Yeast Co., Ltd., Tokyo, Japan) and tap water ad libitum. After a one-week acclimation period, diet and water were changed to a Se-deficient diet (Oriental Yeast) and Milli-Q water (18.3 MΩ·cm), respectively. The rat fed the Se-deficient diet and the Milli-Q water for 3 weeks was used as an Se-deficient rat. The rats continuously fed the commercial diet and tap water served as the positive control.
(§5) The Se-deficient rats were orally administered each Se compound in saline at a dose of 10 μg Se/rat once a day for 2 consecutive days. The saline-administered rats served as the negative control. All the rats were sacrificed 24 h after administration by exsanguination under anesthesia. Non-heparinized blood was collected and clotted blood was centrifuged at 1600× g for 10 min to obtain serum. A 20 μL aliquot of the serum was applied to an HPLC coupled with an ICP-MS to analyze the distribution of Se. […]

[5] = parameters: method as in PMID 26243445; details: cited from earlier work
[6] = test system: extracellular glutathione peroxidase (GPX3); experiment: Bioavailability in vivo: recovery of serum GPX3 in Se-deficient rats by LC-ICP-MS; details: oral 10 μg Se/rat once a day for 2 days, serum 24 h after administration
Protocol: as §3, §4, §5

[7] = Caco-2 monolayer, 1 μg Se/mL, 90 min, mean ± SD for 3 wells

Compound: N[C@@H](CS)C(=O)O [Cys]
- pKa [1]: 8.3

Compound: C[Se]C[C@H](N)C(=O)O [MeSeCys, Se-Methylseleno-L-cysteine]
- dose from which cell viability was significantly increased (proliferation) (Caco-2 cells [2]; dose-dependent): ≥ 0.8 μg Se/mL
- effect on cell proliferation (HepG2 cells): stimulated the proliferation
- dose at which cytotoxicity / reduced cell viability was seen (HepG2 cells): ≥ 40 μg Se/mL
- effect on cell viability / proliferation (HepG2 cells): still induced the cell proliferation at low doses
- permeability in the presence of Met (Caco-2 cells [3]; Caco-2 monolayer): reduced

Compound: CSCC[C@H](N)C(=O)O [Met, L-methionine]
- proliferative effects (Caco-2 and HepG2 cells): no proliferative effects

Compound: N#C[Se-].[K+] [SeCN^−, potassium selenocyanate]
- recovery of serum SELENOP (assimilation of Se) [4]: comparable to selenite
- dose at which cytotoxicity / reduced cell viability was seen (HepG2 cells): 80 μg Se/mL
- percentage permeation (Caco-2 cells [3]; [7]): 3.8% ± 0.44%
- toxicity relative to selenite [5]: less toxic than selenite
- recovery of serum GPX3 (assimilation of Se) [6]: comparable to selenite

Compound: N[C@@H](C[Se][Se]C[C@H](N)C(=O)O)C(=O)O [SeCys2, L-selenocystine]
- dose at or above which cell viability was significantly reduced (Caco-2 cells [2]): ≥ 0.8 μg Se/mL
- dose from which toxicity was dose-dependent (HepG2 cells): ≥ 0.4 μg Se/mL

Compound: N[C@@H](C[SeH])C(=O)O [SeCys, selenocysteine]
- pKa [1]: 5.2

Compound: C[Se]CC[C@H](N)C(=O)O [SeMet, seleno-L-methionine]
- effect on cell proliferation (HepG2 cells): stimulated the proliferation
- effect on cell viability / proliferation (HepG2 cells): marginal cytotoxicity rather than a proliferative effect
- permeability in the presence of Met (Caco-2 cells [3]; Caco-2 monolayer): reduced

Compound: C[Se]C1OC(CO)C(O)C(O)C1NC(C)=O (stereo not drawn) [SeSug1, Se-methylseleno-N-acetylgalactosamine]
- recovery of serum SELENOP (assimilation of Se) [4]: equivalent effect to selenite
- recovery of serum GPX3 (assimilation of Se) [6]: equivalent effect to selenite

Compound: C[Se+](C)C.[I-] [TMSe^+, Trimethylselenonium iodide]
- recovery of serum SELENOP (assimilation of Se) [4]: did not have any apparent effects
- percentage permeation (Caco-2 cells [3]; Caco-2): 3% ± 0.42%
- recovery of serum GPX3 (assimilation of Se) [6]: did not have any apparent effects

Compound: O=[Se]([O-])[O-].[Na+].[Na+] [selenite, Sodium selenite]
- dose at or above which cell viability was significantly reduced (Caco-2 cells [2]): ≥ 8.0 μg Se/mL
- recovery of serum SELENOP (assimilation of Se) [4]: recovery of both selenoproteins was observed
- dose from which toxicity was dose-dependent (HepG2 cells): ≥ 0.8 μg Se/mL
- percentage permeation (Caco-2 cells [3]; [7]): 3.4% ± 0.066%
- recovery of serum GPX3 (assimilation of Se) [6]: recovery of both selenoproteins was observed

Compound: Lucifer Yellow [LY, reference compound]
- percentage permeation (Caco-2 cells [3]; Caco-2): 0.81% ± 0.36%

Compound: S-methylcysteine [MeCys]
- proliferative effects (Caco-2 and HepG2 cells): no proliferative effects
